In PubChem BioAssay AID1259408 (Genetic Toxicology Data Bank (GENE-TOX), 2018) one finds call and mutagenic call data, which are given here for 24 compounds.

This data set concerns GENE-TOX genotoxicity assays, various organisms and cells. Nature of the data set: GENE-TOX mutagenicity studies. To be noted: for call: Assay Type: In vivo carcinogenicity studies, Assay Code: CCG+.
[1] abbreviates: Species/Cell Type: Nonhuman, Evaluation Type: Evaluation A (Pre-1980).
The mark [2] stands for this setting: Species/Cell Type: Salmonella typhimurium (one or more of the five standard strains: TA98, TA100, TA1535, TA1537, and TA1538), Assay Type: Histidine reverse gene mutation, Ames assay, Assay Code: SAL-, Evaluation Type: Evaluation A (Pre-1980).
Setting [3] is: Species/Cell Type: Salmonella typhimurium (one or more of the five standard strains: TA98, TA100, TA1535, TA1537, and TA1538), Assay Type: Histidine reverse gene mutation, Ames assay, Assay Code: SALT, Evaluation Type: Evaluation A (Pre-1980).
[4] abbreviates: Species/Cell Type: Escherichia coli polA (W3119 vs P3478), Assay Type: Rec-assay, DNA effects (bacterial DNA repair), Assay Code: RE1+, Evaluation Type: Evaluation A (Pre-1980).
Where [5] appears, read: Species/Cell Type: Salmonella typhimurium (one or more of the five standard strains: TA98, TA100, TA1535, TA1537, and TA1538), Assay Type: Histidine reverse gene mutation, Ames assay, Assay Code: SAL+, Evaluation Type: Evaluation A (Pre-1980).
[6] abbreviates: Species/Cell Type: Human lymphocytes, Assay Type: Sister-chromatid exchange (SCE) in vitro, Assay Code: SCL+, Evaluation Type: Evaluation B (Post-1980).
Setting [7] is: Species/Cell Type: Human, Assay Type: Sister-chromatid exchange (SCE) in vitro, Assay Code: SC1+, Evaluation Type: Evaluation B (Post-1980).
The mark [8] stands for this setting: Species/Cell Type: Mammalian polychromatic erythrocytes, Assay Type: Micronucleus test, chromosome aberrations, Assay Code: MNT+, Evaluation Type: Evaluation B (Post-1980).
The mark [9] stands for this setting: Species/Cell Type: Saccharomyces cerevisiae, Assay Type: Mitotic recombination or gene conversion, Assay Code: YEC-, Evaluation Type: Evaluation A (Pre-1980).

The structures appear in SMILES notation. Activity calls are given as the source filed them. How the calls were made is not given here.

`CN(CC(=O)O)N=O`: under setting [1], the call is “active; positive”. Also, the mutagenic call (Species/Cell Type: Salmonella typhimurium, Assay Type: Forward and reverse gene mutation, host-mediated assay, Assay Code: HMA-, Evaluation Type: Evaluation A (Pre-1980)) is “inactive; negative”.

Take `O=C1OC(=O)c2c(Br)c(Br)c(Br)c(Br)c21`: under setting [2], the mutagenic call is “inactive; negative”.

On to `COC(=O)C[C@@H]1Cc2cc3c(-c4c(OC)cc(O)c5c(O)c6c(cc45)C[C@@H](CC(=O)OC)OC6=O)c(OC)cc(O)c3c(O)c2C(=O)O1`, for which the mutagenic call runs as follows: (Species/Cell Type: Saccharomyces cerevisiae, Assay Type: Mitotic recombination or gene conversion, Assay Code: YEH-, Evaluation Type: Evaluation A (Pre-1980)) “inactive; negative”; under setting [3], “no conclusion”.

Regarding `N#CN(CCCC(NC(=O)c1ccccc1)C(N)=O)N=O` (stereo not drawn), the mutagenic call under setting [4] is “active; positive”.

Take `CI`: the mutagenic call reads like this: under setting [4], “active; positive”; (Species/Cell Type: Mouse lymphoma (L5178Y) cells, Assay Type: Forward gene mutation at the thymidine kinase (TK) locus, chromosome aberrations, Assay Code: L51+, Evaluation Type: Evaluation A (Pre-1980)) “active; positive”; (Species/Cell Type: Saccharomyces cerevisiae, Assay Type: Mitotic recombination or gene conversion, Assay Code: YEH+, Evaluation Type: Evaluation A (Pre-1980)) “active; positive”; (Species/Cell Type: Syrian hamster embryo (SHE) cells, Assay Type: Cell transformation, clonal assay, Assay Code: CTC+, Evaluation Type: Evaluation A (Pre-1980)) “active; positive”. For the same compound, the call under setting [1] is “active; positive”.

In the case of `CN(C)c1ccc(C(=O)c2ccc(N(C)C)cc2)cc1`, the mutagenic call (Species/Cell Type: Fischer rat embryo (RLV/1706) cells, Assay Type: Cell transformation, viral enhanced, Assay Code: CTR+, Evaluation Type: Evaluation A (Pre-1980)) is “active; positive”. Moreover, under setting [1], the call was “active; positive”.

Consider `COc1ccc2c3c(n(CC=C(C)C)c2c1)[C@H](C=C(C)C)N1C(=O)[C@@H]2CCCN2C(=O)[C@]1(O)[C@H]3O`, for which the mutagenic call under setting [3] was “no conclusion”.

Regarding `Cc1cccc(C2CO2)c1` (stereo not drawn), the mutagenic call (Species/Cell Type: Escherichia coli WP2 UVRA, Assay Type: Tryptophan reverse gene mutation, Assay Code: WPU+D, Dose Response: With dose response, Evaluation Type: Evaluation A (Pre-1980)) was “active; positive”.

As to `ONc1ccc(-c2ccccc2)cc1`, the mutagenic call under setting [5] is “active; positive”.

For `CCCN1CCN(c2ccc([N+](=O)[O-])c3no[n+]([O-])c23)CC1`, under setting [5], the mutagenic call was “active; positive”.

`COc1cc2c(c3ccc4ccccc4c13)CC=C2C`: the mutagenic call (Species/Cell Type: Salmonella typhimurium (one or more of the five standard strains: TA98, TA100, TA1535, TA1537, and TA1538), Assay Type: Histidine reverse gene mutation, Ames assay, Assay Code: SAL+*, Activation: With metabolic activation, Evaluation Type: Evaluation A (Pre-1980)) is “active; positive”.

As for `C[N+](C)(C)CCO`, the mutagenic call runs as follows: (Species/Cell Type: Escherichia coli polA (W3119 vs P3478), Assay Type: Rec-assay, DNA effects (bacterial DNA repair), Assay Code: RE1T, Evaluation Type: Evaluation A (Pre-1980)) “no conclusion”; (Species/Cell Type: Nonhuman, Assay Type: Sister-chromatid exchange (SCE) in vitro, Assay Code: SC2+, Evaluation Type: Evaluation B (Post-1980)) “active; positive”.

For `O=[N+]([O-])[O-].O=[N+]([O-])[O-].[Cd+2]`, the mutagenic call (Species/Cell Type: Bacillus subtilis (H17 vs M45), Assay Type: Rec-assay, spot test, DNA effects (bacterial DNA repair), Assay Code: REW+, Evaluation Type: Evaluation A (Pre-1980)) was “active; positive”.

Consider `F`, for which the mutagenic call by setting is: (Species/Cell Type: Allium cepa, Assay Type: Chromosome aberrations, Assay Code: ALC+D, Dose Response: With dose response, Evaluation Type: Evaluation A (Pre-1980)) “active; positive”; (Species/Cell Type: Drosophila melanogaster, Assay Type: Aneuploidy, partial sex chromosome loss, chromosome aberrations, Assay Code: DAPT, Evaluation Type: Evaluation A (Pre-1980)) “no conclusion”; (Species/Cell Type: Drosophila melanogaster, Assay Type: Aneuploidy, sex chromosome gain, chromosome aberrations, Assay Code: DAG-F, Evaluation Type: Evaluation A (Pre-1980)) “inactive; negative”; (Species/Cell Type: Drosophila melanogaster, Assay Type: Aneuploidy, whole sex chromosome loss, chromosome aberrations, Assay Code: DAC+M, Evaluation Type: Evaluation A (Pre-1980)) “active; positive”; (Species/Cell Type: Drosophila melanogaster, Assay Type: Sex-linked recessive lethal gene mutation, Assay Code: SRL+, Evaluation Type: Evaluation A (Pre-1980)) “active; positive”; (Species/Cell Type: Drosophila melanogaster, Assay Type: Sex-linked recessive lethal gene mutation, Assay Code: SRLT, Evaluation Type: Evaluation A (Pre-1980)) “no conclusion”. Further, the mutagenic call by setting is: under setting [6], “active; positive”; (Species/Cell Type: Human lymphocytes, Assay Type: Sister-chromatid exchange (SCE) in vitro, Assay Code: SCLT, Evaluation Type: Evaluation B (Post-1980)) “no conclusion”; under setting [7], “active; positive”; (Species/Cell Type: Human, Assay Type: Sister-chromatid exchange (SCE) in vitro, Assay Code: SC1T, Evaluation Type: Evaluation B (Post-1980)) “no conclusion”; under setting [8], “active; positive”; (Species/Cell Type: Neurospora crassa, Assay Type: Aneuploidy, chromosome aberrations, Assay Code: NEN-, Evaluation Type: Evaluation A (Pre-1980)) “inactive; negative”. Besides, the mutagenic call reads like this: (Species/Cell Type: Nonhuman lymphocytes or leukocytes, Assay Type: Chromosome aberrations in vivo, Assay Code: CY%-, Evaluation Type: Evaluation A (Pre-1980)) “inactive; negative”; (Species/Cell Type: Nonhuman, Assay Type: Sister-chromatid exchange (SCE) in vivo, Assay Code: SC3-, Evaluation Type: Evaluation A (Pre-1980)) “inactive; negative”; (Species/Cell Type: Nonhuman, Assay Type: Sister-chromatid exchange (SCE) in vivo, Assay Code: SC3T, Evaluation Type: Evaluation B (Post-1980)) “no conclusion”; under setting [9], “inactive; negative”; under setting [3], “no conclusion”.

Turning to `COc1ccc(-c2csc(N)n2)cc1`, for the setting “Species/Cell Type: Salmonella typhimurium, Serratia marcesens, Assay Type: Forward and reverse gene mutation, host-mediated assay, Assay Code: HM2T, Evaluation Type: Evaluation A (Pre-1980)”, the mutagenic call is reported as “no conclusion”.

As for `BrC(Br)Br`, the mutagenic call (Species/Cell Type: Human lymphocytes, Assay Type: Sister-chromatid exchange (SCE) in vitro, Assay Code: SCL+D, Dose Response: With dose response, Evaluation Type: Evaluation B (Post-1980)) was “active; positive”; the mutagenic call (Species/Cell Type: Human, Assay Type: Sister-chromatid exchange (SCE) in vitro, Assay Code: SC1+D, Dose Response: With dose response, Evaluation Type: Evaluation B (Post-1980)) is “active; positive”; the mutagenic call (Species/Cell Type: Nonhuman, Assay Type: Sister-chromatid exchange (SCE) in vitro, Assay Code: SC2+D, Dose Response: With dose response, Evaluation Type: Evaluation B (Post-1980)) is “active; positive”; the mutagenic call (Species/Cell Type: Nonhuman, Assay Type: Sister-chromatid exchange (SCE) in vivo, Assay Code: SC3+D, Dose Response: With dose response, Evaluation Type: Evaluation B (Post-1980)) was “active; positive”.

As to `OCCN1CN(CCO)CN(CCO)C1`, under “Species/Cell Type: Mammalian polychromatic erythrocytes, Assay Type: Micronucleus test, chromosome aberrations, Assay Code: MNTT, Evaluation Type: Evaluation A (Pre-1980)”, the mutagenic call is recorded as “no conclusion”.

Turning to `CCOC(=O)CC(SP(=S)(OC)OC)C(=O)OCC` (stereo not drawn) (tested in a mixture with another compound), the mutagenic call (Species/Cell Type: Hordeum vulgare (barley), Assay Type: Chromosome aberrations, Assay Code: HOC+, Evaluation Type: Evaluation A (Pre-1980)) was “active; positive”.

Consider `CCN(CCCl)CCCNc1c2ccccc2nc2c1ccc1ccccc12`, for which the mutagenic call (Species/Cell Type: Chinese hamster ovary (CHO) cells, Assay Type: Forward gene mutation at the HPRT locus, Assay Code: CHO+D, Dose Response: With dose response, Evaluation Type: Evaluation A (Pre-1980)) was “active; positive”.

Turning to `CCN(Cc1cccc(S(=O)(=O)O)c1)c1ccc(C(=C2C=CC(=[N+](CC)Cc3cccc(S(=O)(=O)O)c3)C=C2)c2ccc(O)cc2S(=O)(=O)[O-])cc1`, the mutagenic call is, setting by setting: (Species/Cell Type: Bacillus subtilis (H17 vs M45), Assay Type: Rec-assay, spot test, DNA effects (bacterial DNA repair), Assay Code: REWT, Evaluation Type: Evaluation A (Pre-1980)) “no conclusion”; (Species/Cell Type: Bacillus subtilis (H17 vs M45T), Assay Type: Rec-assay, spot test, DNA effects (bacterial DNA repair), Assay Code: REXT, Evaluation Type: Evaluation A (Pre-1980)) “no conclusion”; under setting [8], “active; positive”; under setting [9], “inactive; negative”; under setting [2], “inactive; negative”.

`Oc1ccccc1`: the mutagenic call is, setting by setting: under setting [6], “active; positive”; under setting [7], “active; positive”; (Species/Cell Type: Mammalian polychromatic erythrocytes, Assay Type: Micronucleus test, chromosome aberrations, Assay Code: MNTT, Evaluation Type: Evaluation B (Post-1980)) “no conclusion”; (Species/Cell Type: Neurospora crassa, Assay Type: Reverse gene mutation, Assay Code: NER-, Evaluation Type: Evaluation A (Pre-1980)) “inactive; negative”.

`Nc1nnc(/C(=C/c2ccc([N+](=O)[O-])o2)c2ccco2)o1`: the mutagenic call (Species/Cell Type: Human diploid fibroblasts, Assay Type: Unscheduled DNA synthesis (UDS) in vitro, DNA effects, Assay Code: UDH+, Evaluation Type: Evaluation A (Pre-1980)) was “active; positive”.

With `CC1CN(N=O)C(=O)NC1=O` (stereo not drawn), the mutagenic call under setting [5] is “active; positive”.

With `FC(F)(Cl)Br`, where the note is “Species/Cell Type: Mammalian polychromatic erythrocytes, Assay Type: Micronucleus test, chromosome aberrations, Assay Code: MNT-, Evaluation Type: Evaluation B (Post-1980)”, the mutagenic call was “inactive; negative”.
